Patent publication US8652473B2, “Antibodies to EGF receptor epitope peptides and uses thereof” (Ludwig Institute for Cancer Research Ltd., priority 2004, dated 2014)

Tested on: mAb 806
Test: Binding of yeast surface displayed EGFR 273-621 point mutants to mAb […] (flow cytometry)
Design: species or system mouse; key: ++ indicates wild type binding; +, intermediate binding; −, binding equal to negative control
Details: 75 nM 806
Protocol: Out of 100 clones sequenced, roughly 20% contained multiple mutations and were omitted from subsequent analysis. […] All mutations are localized to the disulfide-bonded loop between cysteines 287 and 302, as has been previously determined (34). […] To verify the results from the fine epitope mapping library, alanine scanning through site-directed mutagenesis (SDM) was performed on the entire loop 287-302 (TABLE 7, right column). All sites with loss of binding by alanine scanning (287, 293, 298, and 302) correspond to mutants isolated from the library. […] Since an average of 6-7 amino acid substitutions are accessible by single nucleotide mutagenesis, a larger range of physicochemical diversity can be sampled compared to alanine scanning. […] The C287R substitution raises this dissociation constant to 127 nM (68% confidence interval of 103-160 nM), which gives a ΔΔG value of +2.4 kcal/mol when compared to wild-type and, in alanine scanning terms, is an intermediate loss of binding (36).
The epitope mapping library was constructed using the Stratagene GeneMorph® random mutagenesis kit to give a low mutagenesis rate. The template used for library construction was a pCT302 backbone containing EGFR fragment 273-621, with a C283A mutation to prevent disulfide mispairing, inserted for yeast display (27). The PCR products were gel purified and extracted using a Qiagen Qiaquick gel extraction kit. The library was transformed into Saccharomyces cerevisiae strain EBY100 (28) by electroporation (40) and homologous recombination (41) using a Bio-Rad (Richmond, Calif.) Gene Pulser Transfection Apparatus. […] Growth and expression of the library using yeast surface display was performed as previously described (28).
Anti-c-myc chicken IgY fraction was purchased from Molecular Probes (Eugene, Oreg.). An appropriate number of yeast cells (at least 10× library size) were washed with FACS buffer (phosphate buffered saline containing 1 mg/ml bovine serum albumin). The cells were incubated with 4 μg/ml anti-c-myc chicken IgY and the appropriate concentration of mAb for 30 min at 25° C. The cells were then washed with FACS buffer and incubated with 1:25 dilution phycoerythrin-labeled goat anti-mouse IgG (Sigma) and 1:100 dilution Alexa Fluor® 488 goat anti-chicken IgG (Molecular Probes) for 30 min at 4° C. The labeled cells were rinsed, and cell libraries were sorted using a MoFlo FACS machine at the MIT flow cytometry core facility.
Plasmids from the sorted library populations were recovered using Zymoprep™ and sequenced at the MIT Biopolymers Laboratory. Site-directed mutants were made using QuickChange® site-directed mutagenesis (Stratagene). Single clones were transformed into yeast using EZ Yeast Transformation (Zymo Research) and grown in minimal media (yeast nitrogen base, casein hydrolysate, dextrose, and phosphate buffer pH 7.4) overnight. Yeast surface protein expression was induced by transferring to minimal media with galactose and incubating overnight. For each clone, 1×10^6 cells were labeled as before with anti-c-myc chicken IgY, the appropriate mAb, and secondary fluorescent antibodies. Fluorescence data was obtained using a Coulter Epics XL flow cytometer (Beckman-Coulter) and was analyzed using DakoCytomation Summit™ software

[1] = EGFR Mutant (Library), 273-621 on yeast
[2] = EGFR Mutant (SDM) in loop 287-302, 273-621 on yeast

Substance	mAb […] Binding [1]	mAb […] Binding [2]	also measured
D297Y: yeast displayed EGFR 273-621 point mutant from library	+		
C287A: yeast displayed EGFR 273-621 site-directed mutant		+	
V299K: yeast displayed EGFR 273-621 site-directed mutant		++	
M294A: yeast displayed EGFR 273-621 site-directed mutant		++	
C302S: yeast displayed EGFR 273-621 point mutant from library	−		
G298S: yeast displayed EGFR 273-621 point mutant from library	−		
V299A: yeast displayed EGFR 273-621 site-directed mutant		++	
G288A: yeast displayed EGFR 273-621 site-directed mutant		++	
E296A: yeast displayed EGFR 273-621 site-directed mutant		++	
R300C: yeast displayed EGFR 273-621 point mutant from library	+		
C287R: yeast displayed EGFR 273-621 point mutant from library	+		
C287W: yeast displayed EGFR 273-621 point mutant from library	+		
C302R: yeast displayed EGFR 273-621 point mutant from library	+		
E293D: yeast displayed EGFR 273-621 point mutant from library	+		
D290A: yeast displayed EGFR 273-621 site-directed mutant		++	
E293K: yeast displayed EGFR 273-621 point mutant from library	−		
wild-type 273-621: yeast surface displayed wild-type EGFR fragment 273-621			mAb […] binding score (wild-type EGFR 273-621 on yeast): ++
G298D: yeast displayed EGFR 273-621 point mutant from library	−		
C287S: yeast displayed EGFR 273-621 point mutant from library	+		
R300A: yeast displayed EGFR 273-621 site-directed mutant		++	
C302G: yeast displayed EGFR 273-621 point mutant from library	−		
S291A: yeast displayed EGFR 273-621 site-directed mutant		++	

Continued, in another order:

mAb […] Binding [1]	mAb […] Binding [2]	Substance	also measured
	++	K301A: yeast displayed EGFR 273-621 site-directed mutant	
	−	C302A: yeast displayed EGFR 273-621 site-directed mutant	
+		C302Y: yeast displayed EGFR 273-621 point mutant from library	
	++	E295A: yeast displayed EGFR 273-621 site-directed mutant	
+		K301E: yeast displayed EGFR 273-621 point mutant from library	
	+	G298A: yeast displayed EGFR 273-621 site-directed mutant	
	+	E293A: yeast displayed EGFR 273-621 site-directed mutant	
	++	A289K: yeast displayed EGFR 273-621 site-directed mutant	
	++	Y292A: yeast displayed EGFR 273-621 site-directed mutant	
+		C287G: yeast displayed EGFR 273-621 point mutant from library	
	−	V299D: yeast displayed EGFR 273-621 site-directed mutant	
	++	D297A: yeast displayed EGFR 273-621 site-directed mutant	
